Values of other authors, collected in US7446098B2, “Combination therapy for treating protein deficiencies” (Mount Sinai School of Medicine of New York University, priority 2003, dated 2008).
Where a chain is given by its changes, count along the chain named.

What was measured:
mutant (R301Q) α-Gal A = target: T1, mutant (R301Q) α-Gal A (Homo sapiens, UniProt P06280, R301Q); settings: oral administration; transgenic mice overexpressing mutant (R301Q) α-Gal A; cited from earlier work
T1 construct: expressed in transfected cells; host or cells: transgenic mice (major organs)
T1 sequence (P06280 32-429 R301Q): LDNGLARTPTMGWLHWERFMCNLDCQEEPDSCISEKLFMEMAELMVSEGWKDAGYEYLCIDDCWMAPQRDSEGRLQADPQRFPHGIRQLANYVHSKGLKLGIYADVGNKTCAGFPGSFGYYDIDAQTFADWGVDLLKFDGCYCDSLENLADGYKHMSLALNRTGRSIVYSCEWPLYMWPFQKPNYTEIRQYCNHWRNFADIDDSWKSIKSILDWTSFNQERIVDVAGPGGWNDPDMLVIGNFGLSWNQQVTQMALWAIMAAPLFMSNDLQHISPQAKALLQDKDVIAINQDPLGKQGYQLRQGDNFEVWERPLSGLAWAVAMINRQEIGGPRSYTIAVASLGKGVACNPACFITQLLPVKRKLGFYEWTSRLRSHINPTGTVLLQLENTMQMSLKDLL

wild-type α-Gal A = target: T2, wild-type α-Gal A (Homo sapiens, UniProt P06280); settings: transfected COS-7 cells; cited from earlier work
T2 construct: expressed in transfected cells; host or cells: COS-7
T2 sequence (P06280 32-429): T1 sequence (P06280 32-429 R301Q) with Q270R

[1] = system: mutant α-Gal A (R301Q or Q279E); settings: lymphoblasts from Fabry patients with R301Q or Q279E mutations; cited from earlier work
mutant α-Gal A (R301Q) = target: T3, mutant α-Gal A (R301Q) (Homo sapiens, UniProt P06280, R301Q); settings: neutral pH; cited from earlier work
T3 sequence (P06280 32-429 R301Q): T1 sequence (P06280 32-429 R301Q)

OC[C@H]1NC[C@H](O)[C@@H](O)[C@H]1O [DGJ, 1-deoxygalactonojirimycin]
enzyme activity in major organs (mutant (R301Q) α-Gal A): substantially elevated
activity of wild-type α-Gal A (wild-type α-Gal A): able to increase
amount of wild-type α-Gal A (wild-type α-Gal A): able to increase
mutant enzyme activity in lymphoblasts [1]: enhanced
in vitro stability of mutant α-Gal A (R301Q) (mutant α-Gal A (R301Q)): effectively increased
